Test system: T-47D spheroids with HUVEC/MSC, viability
Experiment: Anticancer human tumor T-47D cell line growth inhibition [PI3K];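 note: spheroids exposed to agents for seven days before reading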;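 for viability, T/C: percent of DMSO vehicle control luminescence so 100% = untreated growth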
Settings: for IC50: curve of first compound; for viability, T/C: stronger effect = lower value
Excerpt: Combinatorial screen of targeted agents with the PI3K inhibitors inavolisib, alpelisib, duvelisib, and copanlisib in multi-cell type tumor spheroids
A high-throughput screen of multi-cell type tumor spheroids was designed to identify active combinations of targeted small molecules and PI3K pathway inhibitors. Complex spheroids include a stromal component modeled by human endothelial cells (HUVEC) and fibroblasts modeled by human mesenchymal stem cells (MSCs). The concentration ranges selected for each drug and investigational agent were based upon clinically achievable concentrations if the clinical Cmax of the agent was known.
Compounds. The drugs and investigational agents: inavolisib (NSC800729), alpelisib (NSC765974), duvelisib (NSC772469), copanlisib (NSC816437), ipatasertib (NSC767898), afuresertib (NSC778305), talazoparib (NSC767125), sapanisertib (NSC764658), selumetinib (NSC741078), tovorafenib (DAY101, NSC766906), vemurafenib (NSC761431), ravoxertinib (NSC781343), sotorasib (NSC818433), MRTX1133 (NSC 836407), abemaciclib (NSC 768073), palbociclib (NSC758247), venetoclax (NSC 766270), SY5609 (NSC837396), enzalutamide (NSC755605), and darolutamide (NSC825331), were obtained from the National Cancer Institute (NCI) Developmental Therapeutics Program Chemical Repository. The FDA-approved anticancer drug set is available from the NCI Developmental Therapeutics Program. […] The stock solutions were prepared in dimethyl sulfoxide (DMSO, Sigma-Aldrich, St. Louis, MO, cat. D2650) at 800-fold the tested concentration and stored at -70 degrees C prior to their use. All drugs and investigational agents were tested over a range starting from a high concentration at or near the clinical Cmax and decreasing in half-log increments. If the clinical Cmax for an agent had not been determined, the highest concentration tested was 10 microM.
Cell Culture. All cells were maintained in an incubator at 37 degrees C and 5% CO2 with 95% humidity. The PDC lines were cultured according to standard operating procedures established by the NCI PDMR (https://pdmr.cancer.gov/sops/default.htm). All PDCs were thawed and cultured in Matrigel-coated flasks prepared with a working solution of 1X Ham's F-12 nutrient mix, without supplementation (Invitrogen, Waltham, MA, cat. 11765054), 100 U/mL penicillin-streptomycin (Invitrogen, cat. 15140122), and 2.5% Matrigel (Corning Inc., Corning, NY, cat. 354248) for the first three passages. The 354836-022-R-J1-PDC, 475296-252-R-J1-PDC, and 997726-040-R-J2-PDC lines were cultured in 6A media, which includes advanced DMEM/F-12 (Thermo Fisher Scientific, cat. 12634028), 10 mM HEPES (Thermo Fisher Scientific, cat. 15630080), 1X GlutaMAX supplement (Thermo Fisher Scientific, cat. 35050061), 0.1 mg/mL primocin (InvivoGen, San Diego, CA, cat. ant-pm-2), 10% defined fetal bovine serum, heat inactivated (HyClone Laboratories Inc., Logan, UT, cat. SH30070.03HI), 50% L-WRN conditioned media (ATCC, cat. CRL-3276), 1.25 mM N-Acetyl-L-cysteine (Sigma-Aldrich, cat. A9165), 10 mM nicotinamide (Sigma-Aldrich, cat. N0636), 1X B-27 supplement (Thermo Fisher Scientific, cat. 17504044), 1X N-2 supplement (Thermo Fisher Scientific, cat. 17502048), and 10 microM Y-27632 dihydrochloride (Tocris Bioscience, Bristol, United Kingdom, cat. 1254). The 624824-186-R-J2-PDC line was cultured in 6C/Colon 1B media, which includes all 6A media components plus 50 ng/mL human EGF recombinant protein (Thermo Fisher Scientific, cat. PHG0311). […]

[1] = second compound 0.0316 µM, first compound 0.0316 µM
[2] = second compound 0.0316 µM, first compound 0.1 µM
[3] = second compound 0.0316 µM, first compound 0.316 µM
[4] = second compound 0.0316 µM, first compound 1 µM
[5] = second compound 0.0316 µM, first compound 3.16 µM
[6] = second compound 0.0316 µM, first compound 10 µM
[7] = second compound 0.1 µM, first compound 0.0316 µM
[8] = second compound 0.1 µM, first compound 0.1 µM
[9] = second compound 0.1 µM, first compound 0.316 µM
[10] = second compound 0.1 µM, first compound 1 µM
[11] = second compound 0.1 µM, first compound 3.16 µM
[12] = second compound 0.1 µM, first compound 10 µM
[13] = second compound 0.316 µM, first compound 0.0316 µM
[14] = second compound 0.316 µM, first compound 0.1 µM
[15] = second compound 0.316 µM, first compound 0.316 µM
[16] = second compound 0.316 µM, first compound 1 µM
[17] = second compound 0.316 µM, first compound 3.16 µM
[18] = second compound 0.316 µM, first compound 10 µM
[19] = second compound 1 µM, first compound 0.0316 µM
[20] = second compound 1 µM, first compound 0.1 µM
[21] = second compound 1 µM, first compound 0.316 µM
[22] = second compound 1 µM, first compound 1 µM
[23] = second compound 1 µM, first compound 3.16 µM
[24] = second compound 1 µM, first compound 10 µM
[25] = second compound 3.16 µM, first compound 0.0316 µM
[26] = second compound 3.16 µM, first compound 0.1 µM
[27] = second compound 3.16 µM, first compound 0.316 µM
[28] = second compound 3.16 µM, first compound 1 µM
[29] = second compound 3.16 µM, first compound 3.16 µM
[30] = second compound 3.16 µM, first compound 10 µM
[31] = second compound 10 µM, first compound 0.0316 µM
[32] = second compound 10 µM, first compound 0.1 µM
[33] = second compound 10 µM, first compound 0.316 µM
[34] = second compound 10 µM, first compound 1 µM
[35] = second compound 10 µM, first compound 3.16 µM
[36] = second compound 10 µM, first compound 10 µM

For `CCCS(=O)(=O)Nc1ccc(F)c(C(=O)c2c[nH]c3ncc(-c4ccc(Cl)cc4)cc23)c1F` + Cc1nc(NC(=O)N2CCCC2C(N)=O)sc1-c1ccnc(C(C)(C)C(F)(F)F)c1, the IC50 (second compound 0.0316 µM) was 9.2 µM, the IC50 (second compound 0.1 µM) was 8.1 µM and the IC50 (second compound 0.316 µM) was 7.63 µM. It also gave an IC50 (second compound 1 µM) of 7.35 µM, an IC50 (second compound 3.16 µM) of 4.41 µM and an IC50 (second compound 10 µM) of under 0.0316 µM. For the same molecule, the viability, T/C [1] was 95.4%, the viability, T/C [2] was 92.7% and the viability, T/C [3] was 100%. It also gave a viability, T/C [4] of 94.4%, a viability, T/C [5] of 108% and a viability, T/C [6] of 46.1%. For the same molecule, the viability, T/C [7] was 93.1%, the viability, T/C [8] was 92.5% and the viability, T/C [9] was 107%. The viability, T/C [10] was 91.4%, the viability, T/C [11] was 85.9% and the viability, T/C [12] was 41.7%. It also gave a viability, T/C [13] of 99.8%, a viability, T/C [14] of 93% and a viability, T/C [15] of 89.3%. For the same molecule, the viability, T/C [16] was 90.5%, the viability, T/C [17] was 76% and the viability, T/C [18] was 41.7%. The viability, T/C [19] was 83.5%, the viability, T/C [20] was 82.3% and the viability, T/C [21] was 81.5%. The viability, T/C [22] was 78.3%, the viability, T/C [23] was 78.4% and the viability, T/C [24] was 39.7%. It also gave a viability, T/C [25] of 75.3%, a viability, T/C [26] of 76.9% and a viability, T/C [27] of 79%. It also gave a viability, T/C [28] of 81.5%, a viability, T/C [29] of 56% and a viability, T/C [30] of 35%. It also gave a viability, T/C [31] of 35.3%, a viability, T/C [32] of 40.7% and a viability, T/C [33] of 41.2%. For the same molecule, the viability, T/C [34] was 37.8%, the viability, T/C [35] was 38.3% and the viability, T/C [36] was 32.8%.

`CC1(C)CCC(CN2CCN(c3ccc(C(=O)NS(=O)(=O)c4ccc(NCC5CCOCC5)c([N+](=O)[O-])c4)c(Oc4cnc5[nH]ccc5c4)c3)CC2)=C(c2ccc(Cl)cc2)C1` + Cc1nc(NC(=O)N2CCCC2C(N)=O)sc1-c1ccnc(C(C)(C)C(F)(F)F)c1 gave an IC50 (second compound 0.0316 µM) of over 10 µM, an IC50 (second compound 0.1 µM) of over 10 µM and an IC50 (second compound 0.316 µM) of over 10 µM. The IC50 (second compound 1 µM) was over 10 µM, the IC50 (second compound 3.16 µM) was over 10 µM and the IC50 (second compound 10 µM) was under 0.0316 µM. It also gave a viability, T/C [1] of 106%, a viability, T/C [2] of 94.2% and a viability, T/C [3] of 111%. For the same molecule, the viability, T/C [4] was 99.2%, the viability, T/C [5] was 78.1% and the viability, T/C [6] was 87.8%. The viability, T/C [7] was 118%, the viability, T/C [8] was 92.3% and the viability, T/C [9] was 92.9%. It also gave a viability, T/C [10] of 89.6%, a viability, T/C [11] of 108% and a viability, T/C [12] of 73.3%. For the same molecule, the viability, T/C [13] was 98.8%, the viability, T/C [14] was 101% and the viability, T/C [15] was 89.3%. The viability, T/C [16] was 94.3%, the viability, T/C [17] was 94% and the viability, T/C [18] was 80.1%. The viability, T/C [19] was 99.4%, the viability, T/C [20] was 99.1% and the viability, T/C [21] was 102%. It also gave a viability, T/C [22] of 85.3%, a viability, T/C [23] of 76.9% and a viability, T/C [24] of 71.2%. It also gave a viability, T/C [25] of 78.5%, a viability, T/C [26] of 65.6% and a viability, T/C [27] of 64.2%. For the same molecule, the viability, T/C [28] was 59.8%, the viability, T/C [29] was 64.5% and the viability, T/C [30] was 57.1%. For the same molecule, the viability, T/C [31] was 40.1%, the viability, T/C [32] was 41.7% and the viability, T/C [33] was 37%. It also gave a viability, T/C [34] of 31.4%, a viability, T/C [35] of 30.2% and a viability, T/C [36] of 34.2%.

Source: PubChem BioAssay AID1963959 (Molecular Pharmacology Branch, DTP, NCI, 2024)
